Measured values as given in patent publication US11952383B1, “Aza-podophyllotoxin analogues as potential anti-cancer agents” (KING FAISAL UNIVERSITY, priority 2023, dated 2024).
Read-outs that look alike come from different tables or passages of the source.

Legend:
HL-60 (leukemia) = assay: In vitro cytotoxic activity MTT assay, HL-60; assay type: cell-based, human
Experimental: (§1) The cytotoxicity activity of the compounds of the current subject matter was assessed against three cancer cell lines such as A-549 (lung cancer), MCF-7 (breast cancer) and HL-60 (leukemia) cancer cells.
(§2) Compounds 1-15 were screened for their in vitro cytotoxic behavior utilizing a 3-(4,5-dimethyl-thiazol-2-yl)-2,5-diphenyltetrazolium bromide (MTT) assay against selected cancer human cell lines consisting of MCF-7 (human breast cancer), A-549 (lung cancer) and HL-60 (leukemia) (T. Mosmann, J. Immunol. Meth., 1983, 65, 55-63). The cells were cultured at 37° C. in RMPI1640 medium supplemented with 10% fetal bovine serum, 50 IU/mL penicillin, and 50 μg/mL streptomycin in a 5% CO2 incubator. All cells were sub-cultured 3 times/week by trypsinisation. Viable cells were seeded and allowed to adhere for 12 h before a test drug was added in 96-well plates at an initial density of 1.0×10^5 cells/mL. Tumour cell lines were separately exposed to various concentrations of the tested compounds followed by incubation at a temperature of 37° C. during 24 h inside a medium of fresh RMPI 1640. Cells were subsequently incubated at 37° C. using MTT at 0.5 mg/mL during 4 h. After removal of supernatant, formazan crystals were dissolved in isopropanol and the optical density was measured at 570 nm. Etopside and Cisplatin were used as a positive control.

A-549 (lung cancer) = assay: In vitro cytotoxic activity MTT assay, A-549; assay type: cell-based, human
Experimental: as §1, §2

[1] = system: MCF-7 (human breast cancer); assay: In vitro cytotoxic activity MTT assay, MCF-7; assay type: cell-based
Experimental: as §1, §2

[2] = Homo sapiens, HL-60 leukemia cells, MTT, 24 h incubation, read-out: Anti-proliferative activity: IC50 (μM) HL-60
[3] = Homo sapiens, A549, A-549 lung cancer cells, MTT, 24 h incubation, read-out: Anti-proliferative activity: IC50 (μM) A-549
[4] = Homo sapiens, MCF7, MCF-7 breast cancer cells, MTT, 24 h incubation, read-out: Anti-proliferative activity: IC50 (μM) MCF-7
[5] = HL-60 leukemia cells, MTT, 24 h incubation, read-out: Anti-proliferative activity: IC50 (μM) HL-60
[6] = A-549 lung cancer cells, MTT, 24 h incubation, read-out: Anti-proliferative activity: IC50 (μM) A-549
[7] = MCF-7 breast cancer cells, MTT, 24 h incubation, read-out: Anti-proliferative activity: IC50 (μM) MCF-7

Row | Compound | IC50 (HL-60 (leukemia); [2]) | IC50 (A-549 (lung cancer); [3]) | IC50 [1, 4] | IC50 (HL-60 (leukemia); [5]) | IC50 (A-549 (lung cancer); [6]) | IC50 [1, 7] | IC50 (HL-60 (leukemia); Homo sapiens, HL-60 cancer cells, read-out: IC50 (concentration of cytotoxic agent which inhibits proliferation of the treated cells by 50%) against HL-60) | IC50 (A-549 (lung cancer); Homo sapiens, A549, A-549 cancer cells, read-out: IC50 (concentration of cytotoxic agent which inhibits proliferation of the treated cells by 50%) against A-549) | IC50 ([1]; Homo sapiens, MCF7, MCF-7 cancer cells, read-out: IC50 (concentration of cytotoxic agent which inhibits proliferation of the treated cells by 50%) against MCF-7)
1 | O=C1OCC2=C1C(c1ccc(O)c(O)c1)n1c(nc3ccccc31)N2 (stereo not drawn) [Example 5, 11-(3,4-dihydroxyphenyl)-4,11-dihydro-1H,3H-benzo[4,5]imidazo[1,2-a]furo[3,4-d]pyrimidin-1-one] | 0.178 µM | 0.151 µM | 0.154 µM |  |  |  |  |  | 
2 | N.N.[Cl][Pt][Cl] [Cisplatin, reference compound] |  |  |  | 1.16 µM | 9.25 µM | 15.9 µM |  |  | 
3 | CC(=O)Nc1ccc(C2C3=C(COC3=O)Nc3nc4ccccc4n32)cc1 (stereo not drawn) [Example 10, N-(4-(1-oxo-4,11-dihydro-1H,3H-benzo[4,5]imidazo[1,2-a]furo[3,4-d]pyrimidin-11-yl)phenyl)acetamide] | 0.281 µM | 0.211 µM | 0.374 µM |  |  |  |  |  | 
4 | O=C1OCC2=C1C(c1ccc(Br)cc1)n1c(nc3ccccc31)N2 (stereo not drawn) [Example 15, 11-(4-bromophenyl)-4,11-dihydro-1H,3H-benzo[4,5]imidazo[1,2-a]furo[3,4-d]pyrimidin-1-one] | 0.092 µM | 0.105 µM | 0.081 µM |  |  |  |  |  | 
5 | O=C1OCC2=C1C(c1ccc(F)cc1)n1c(nc3ccccc31)N2 (stereo not drawn) [Example 13, 11-(4-fluorophenyl)-4,11-dihydro-1H,3H-benzo[4,5]imidazo[1,2-a]furo[3,4-d]pyrimidin-1-one] | 0.061 µM | 0.071 µM | 0.045 µM |  |  |  | 0.061 µM | 0.071 µM | 0.045 µM
6 | Nc1ccc(C2C3=C(COC3=O)Nc3nc4ccccc4n32)cc1 (stereo not drawn) [Example 9, 11-(4-aminophenyl)-4,11-dihydro-1H,3H-benzo[4,5]imidazo[1,2-a]furo[3,4-d]pyrimidin-1-one] | 0.143 µM | 0.123 µM | 0.162 µM |  |  |  |  |  | 
7 | COc1ccc(C2C3=C(COC3=O)Nc3nc4ccccc4n32)cc1 (stereo not drawn) [Example 1, 11-(4-methoxyphenyl)-4,11-dihydro-1H,3H-benzo[4,5]imidazo[1,2-a]furo[3,4-d]pyrimidin-1-one] | 0.082 µM | 0.092 µM | 0.126 µM |  |  |  |  |  | 
8 | COc1cc(C2C3=C(COC3=O)Nc3nc4ccccc4n32)ccc1O (stereo not drawn) [Example 6, 11-(4-hydroxy-3-methoxyphenyl)-4,11-dihydro-1H,3H-benzo[4,5]imidazo[1,2-a]furo[3,4-d]pyrimidin-1-one] | 0.133 µM | 0.095 µM | 0.105 µM |  |  |  |  |  | 
9 | COc1cc(C2C3=C(CNC3=O)Nc3nc4ccccc4n32)cc(OC)c1OC (stereo not drawn) [Example 11, 11-(3,4,5-trimethoxyphenyl)-2,3,4,11-tetrahydro-1H-benzo[4,5]imidazo[1,2-a]pyrrolo[3,4-d]pyrimidin-1-one] | 0.104 µM | 0.086 µM | 0.125 µM |  |  |  |  |  | 
10 | Cc1ccc(C2C3=C(COC3=O)Nc3nc4ccccc4n32)cc1 (stereo not drawn) [Example 7, 11-(p-tolyl)-4,11-dihydro-1H,3H-benzo[4,5]imidazo[1,2-a]furo[3,4-d]pyrimidin-1-one] | 0.072 µM | 0.067 µM | 0.069 µM |  |  |  |  |  | 
11 | COc1ccc(C2C3=C(COC3=O)Nc3nc4ccccc4n32)cc1OC (stereo not drawn) [Example 2, 11-(3,4-dimethoxyphenyl)-4,11-dihydro-1H,3H-benzo[4,5]imidazo[1,2-a]furo[3,4-d]pyrimidin-1-one] | 0.096 µM | 0.12 µM | 0.104 µM |  |  |  |  |  | 
12 | CN(C)c1ccc(C2C3=C(COC3=O)Nc3nc4ccccc4n32)cc1 (stereo not drawn) [Example 8, 11-(4-(dimethylamino)phenyl)-4,11-dihydro-1H,3H-benzo[4,5]imidazo[1,2-a]furo[3,4-d]pyrimidin-1-one] | 0.129 µM | 0.092 µM | 0.087 µM |  |  |  |  |  | 
13 | O=C1OCC2=C1C(c1ccc(Cl)cc1)n1c(nc3ccccc31)N2 (stereo not drawn) [Example 14, 11-(4-chlorophenyl)-4,11-dihydro-1H,3H-benzo[4,5]imidazo[1,2-a]furo[3,4-d]pyrimidin-1-one] | 0.069 µM | 0.058 µM | 0.074 µM |  |  |  |  |  | 
14 | COc1cc([C@@H]2c3cc4c(cc3[C@@H](O[C@@H]3O[C@@H]5CO[C@@H](C)O[C@H]5[C@H](O)[C@H]3O)[C@H]3COC(=O)[C@H]23)OCO4)cc(OC)c1O [Etoposide, reference compound] |  |  |  | 0.31 µM | 11.9 µM | 32.8 µM |  |  | 
15 | O=C1OCC2=C1C(c1ccc3c(c1)OCO3)n1c(nc3ccccc31)N2 (stereo not drawn) [Example 4, 11-(benzo[d][1,3]dioxol-5-yl)-4,11-dihydro-1H,3H-benzo[4,5]imidazo[1,2-a]furo[3,4-d]pyrimidin-1-one] | 0.084 µM | 0.104 µM | 0.097 µM |  |  |  |  |  | 
16 | COc1cc(C2C3=C(COC3=O)Nc3nc4ccccc4n32)cc(OC)c1OC (stereo not drawn) [Example 3, 11-(3,4,5-trimethoxyphenyl)-4,11-dihydro-1H,3H-benzo[4,5]imidazo[1,2-a]furo[3,4-d]pyrimidin-1-one] | 0.128 µM | 0.081 µM | 0.115 µM |  |  |  |  |  | 
17 | COc1cc(C2C3=C(CSC3=O)Nc3nc4ccccc4n32)cc(OC)c1OC (stereo not drawn) [Example 12, 11-(3,4,5-trimethoxyphenyl)-4,11-dihydro-1H,3H-benzo[4,5]imidazo[1,2-a]thieno[3,4-d]pyrimidin-1-one] | 0.085 µM | 0.075 µM | 0.111 µM |  |  |  |  |  | 
